Data reported in patent publication US6831075B2, “Heterocyclic substituted pyrazolones” (Cephalon, Inc., priority 1999, dated 2004).

How the values were obtained:
Assay type in all cases: biochemical
[1] = target: T1, recombinant human baculovirus-expressed VEGFR1 cytoplasmic domain (Homo sapiens, UniProt P17948); assay: VEGFR1 kinase inhibition assay (ELISA-based, time-resolved fluorescence); conditions: 1 uM compound, 30 μM ATP; for inhibition at 1 µM: read-out: VEGFR-1 kinase % inhibition @ 1 uM
T1 construct: recombinant human baculovirus-expressed VEGFR1 cytoplasmic domain; host or cells: baculovirus expression system
T1 sequence (P17948 781-1338 limits assumed): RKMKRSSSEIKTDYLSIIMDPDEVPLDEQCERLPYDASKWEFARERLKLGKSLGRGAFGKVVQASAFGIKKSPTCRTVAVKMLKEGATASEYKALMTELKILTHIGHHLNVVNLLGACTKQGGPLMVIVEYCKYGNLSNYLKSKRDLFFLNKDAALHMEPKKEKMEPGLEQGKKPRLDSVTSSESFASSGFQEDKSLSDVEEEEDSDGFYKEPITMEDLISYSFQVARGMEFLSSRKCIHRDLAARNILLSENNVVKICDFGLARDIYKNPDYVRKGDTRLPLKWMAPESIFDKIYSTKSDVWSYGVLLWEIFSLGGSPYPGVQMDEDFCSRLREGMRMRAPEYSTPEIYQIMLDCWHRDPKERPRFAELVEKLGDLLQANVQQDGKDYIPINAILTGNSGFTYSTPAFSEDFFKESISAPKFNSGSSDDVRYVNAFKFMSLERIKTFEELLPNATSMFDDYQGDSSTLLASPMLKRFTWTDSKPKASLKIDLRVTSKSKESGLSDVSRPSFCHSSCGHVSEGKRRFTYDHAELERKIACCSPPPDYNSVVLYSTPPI
Description: Inhibition of Vascular Endothelial Growth Factor Receptor-1 Kinase Activity
The VEGFR1 kinase activity assay utilizes an ELISA-based format in a 96-well FluoroNUNC Maxisorp plate with a time-resolved fluorescence readout. The plate was coated with 100 μl/well of substrate solution (recombinant human PLC-γ/GST) at a concentration of 40 μg/ml in Tris buffered saline (TBS). The VEGFR1 activity was assayed in 100-μl assay micture containing 50 mM HEPES (pH 7.4), 30 μM ATP, 10 mM MnCl2, 0.1% BSA, 2% DMSO, and 300 ng/ml prephosphorylated recombinant human baculovirus-expressed VEGFR1 cytoplasmic domain. Compounds were screened for inhibition of the VEGFR1 kinase activity at a concentration of 1 μM. The kinase reaction was allowed to proceed at 37° C. for 15 minutes. The detection antibody, europium-labeled anti-phosphotyrosine antibody (Wallac #CR04-100), was added at 1:5000 dilution in block buffer (3% BSA in TBST). After a 1-hour incubation at 37° C., 100 μl of enhancement solution (Wallac #1244-105) was added and the plate was gently agitated. After 5 min, the fluorescence of the resulting solution was measured using the BMG Fluostar (Model # 403).

[2] = target: T2, recombinant human baculoviral VEGFR2 cyctoplasmic domain (Homo sapiens, UniProt P35968); assay: VEGFR2 kinase inhibition assay (ELISA-based, time-resolved fluorescence); conditions: 1 uM compound, 30 μM ATP; for inhibition at 1 µM: read-out: VEGFR-2 kinase % inhibition @ 1 uM
T2 construct: recombinant human baculoviral VEGFR2 cyctoplasmic domain; host or cells: baculovirus expression system

baculoviral GST-MLK2KDLZ = target: T3, baculoviral GST-MLK2KDLZ (Homo sapiens, UniProt Q02779); assay: Mixed Lineage Kinase-2 inhibition assay (Millipore Multiscreen plate, 32P); conditions: 1 uM compound, 100 μM ATP; for inhibition at 1 µM: read-out: MLK-2 Kinase % inhibition @ 1 uM
T3 construct: 3 μg/ml of baculoviral GST-MLK2KDLZ; GST (N); host or cells: baculovirus expression system
Description: Inhibition of Mixed Lineage Kinase-2 Activity
Assays were performed using the Millipore Multiscreen plate format as described for MLK1. Each 50-μl assay mixture contained 20 mM Hepes, pH 7, 1 mM EGTA, 10 mM MgCl2, 1 mM DTT, 25 mM β-glycerophosphate, 100 μM ATP, 0.25 μCi [γ-^32P]ATP, 0.1% BSA, 500 μg/ml myelin basic protein (UBI #13-104), 2% DMSO, various concentrations of test compound, and 3 μg/ml of baculoviral GST-MLK2KDLZ. Samples were incubated for 15 min. at 37° C. The reaction was stopped by adding ice cold 50% TCA and the proteins were allowed to precipitate for 30 min at 4° C. The plates were then washed with ice cold 25% TCA Supermix scintillation cocktail was added, and the plates were allowed to equilibrate for 1-2 hours prior to counting.

[3] = target: T4, recombinant human baculovirus-expressed FGFR1 cytoplasmic domain (Homo sapiens, UniProt P11362); assay: FGFR1 kinase inhibition assay (ELISA-based, time-resolved fluorescence); conditions: 1 uM compound; 20 μM ATP
T4 construct: recombinant human baculovirus-expressed FGFR1 cytoplasmic domain; host or cells: baculovirus expression system
Description: Inhibition of Fibroblast Growth Factor Receptor-1 (FGFR1) Kinase Activity
The FGFR1 kinase activity was measured using an ELISA-based format in a 96-well FluoroNUNC Maxisorp plate with a time-resolved fluorescence readout as described for trkA kinase. The plate was coated with 100 μl/well of substrate solution (recombinant human PLC-γ/GST) at a concentration of 10 μg/ml in Tris buffered saline (TBS). The FDGFR1 activity was assayed in 100-μl assay micture containing 50 mM HEPES (pH 7.4), 20 μM ATP, 10 mM MnCl2, 0.1% BSA, 2% DMSO, and 15 ng/ml recombinant human baculovirus-expressed FGFR1 cytoplasmic domain (prephosphorylated prior to use). Compounds were screened for inhibition of the FGFR1 kinase activity at a conentration of 1 μM. The kinase reaction was allowed to proceed at 37° C. for 15 minutes. The detection antibody, europium-labeled anti-phosphotyrosine antibody (Wallace #CR04-100), was added at 1:5000 dilution in block buffer (3% BSA in TBST). After a 1-hour incubation at 37° C., 100 μl of enhancement solution (Wallac #1244-105) and the plate was gently agitated. After 5 min, the fluorescence of the resulting solutions measured using the BMG Fluostar (Model # 403).

T4 sequence (P11362 398-822 limits assumed): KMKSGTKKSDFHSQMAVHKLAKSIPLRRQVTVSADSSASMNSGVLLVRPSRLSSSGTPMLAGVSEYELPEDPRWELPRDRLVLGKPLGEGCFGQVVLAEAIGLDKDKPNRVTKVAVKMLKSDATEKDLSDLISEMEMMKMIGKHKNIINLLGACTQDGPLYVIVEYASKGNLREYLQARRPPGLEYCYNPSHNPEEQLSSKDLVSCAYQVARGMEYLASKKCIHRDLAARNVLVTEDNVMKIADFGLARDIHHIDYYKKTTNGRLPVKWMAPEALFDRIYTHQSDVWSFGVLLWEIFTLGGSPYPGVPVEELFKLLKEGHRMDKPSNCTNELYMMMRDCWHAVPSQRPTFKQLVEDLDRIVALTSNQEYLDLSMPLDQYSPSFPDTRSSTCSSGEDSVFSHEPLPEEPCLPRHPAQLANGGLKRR
T3 sequence (Q02779 98-440 limits assumed): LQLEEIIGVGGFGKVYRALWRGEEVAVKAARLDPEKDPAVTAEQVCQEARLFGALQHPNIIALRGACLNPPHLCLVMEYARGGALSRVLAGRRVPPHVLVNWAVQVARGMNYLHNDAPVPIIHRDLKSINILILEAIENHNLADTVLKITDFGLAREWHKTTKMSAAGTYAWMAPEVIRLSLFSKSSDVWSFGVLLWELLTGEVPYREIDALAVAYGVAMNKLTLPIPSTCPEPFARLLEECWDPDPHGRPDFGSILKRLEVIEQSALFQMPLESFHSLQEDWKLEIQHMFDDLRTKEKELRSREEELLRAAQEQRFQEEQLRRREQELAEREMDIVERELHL
T2 sequence (P35968 786-1356 limits assumed): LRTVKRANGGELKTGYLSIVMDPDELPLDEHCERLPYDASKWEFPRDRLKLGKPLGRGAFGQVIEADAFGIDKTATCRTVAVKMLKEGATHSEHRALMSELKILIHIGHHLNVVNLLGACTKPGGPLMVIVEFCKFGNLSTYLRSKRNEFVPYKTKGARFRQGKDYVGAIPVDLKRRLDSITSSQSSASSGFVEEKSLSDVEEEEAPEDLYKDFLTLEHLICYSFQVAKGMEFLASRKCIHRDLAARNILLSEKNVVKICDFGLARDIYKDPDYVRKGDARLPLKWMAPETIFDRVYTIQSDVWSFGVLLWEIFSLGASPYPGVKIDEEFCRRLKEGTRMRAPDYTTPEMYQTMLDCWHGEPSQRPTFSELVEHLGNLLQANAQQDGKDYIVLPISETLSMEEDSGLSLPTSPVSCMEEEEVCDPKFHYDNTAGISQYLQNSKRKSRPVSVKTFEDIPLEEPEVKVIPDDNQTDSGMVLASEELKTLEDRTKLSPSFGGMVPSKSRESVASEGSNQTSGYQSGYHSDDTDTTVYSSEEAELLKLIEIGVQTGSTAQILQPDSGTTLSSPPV

SMILES	VEGFR-1 kinase % inhibition @ 1 uM [1]	VEGFR-2 kinase % inhibition @ 1 uM [2]	MLK-2 Kinase % inhibition @ 1 uM (baculoviral GST-MLK2KDLZ)	FGFR1 % inhibition @ 1 uM [3]	inhibition at 1 µM [1]	inhibition at 1 µM [2]	inhibition at 1 µM (baculoviral GST-MLK2KDLZ)	inhibition at 1 µM [3]
Cn1ccc(C2=NNC(=O)C2=Cc2c[nH]c3ccc(F)cc23)c1 [Compound 32]	48%	47%	−14%	4%	–	–	–	–
Cc1ccc2c(C=C3C(=O)NN=C3c3ccn(C)c3)c[nH]c2c1 [Compound 33]	36%	25%	−13%	27%	–	–	–	–
Cc1cccc2c(C=C3C(=O)NN=C3c3ccn(C)c3)c[nH]c12 [Compound 34]	30%	32%	1%	34%	–	–	–	–
Cn1ccc(C2=NNC(=O)C2=Cc2c[nH]c3ccc(Cl)cc23)c1 [Compound 35]	10%	19%	−15%	29%	–	–	–	–
Cc1cc(C)c(C=C2C(=O)NN=C2c2cc(C)oc2C)[nH]1 [Compound 36]	14%	27%	−18%	31%	–	–	–	–
Cc1cc(C)c(C=C2C(=O)NN=C2c2ccsc2)[nH]1 [Compound 37, 4-[(3,5-dimethylpyrrol-2-yl)methylene]-3-(3-thienyl)-2-pyrazolin-5-one]	–	–	–	–	14%	62%	12%	32%
O=C1NN=C(c2cccs2)C1=Cc1c[nH]c2ccccc12 [Compound 38, 4-(indol-3-ylmethylene)-3-(2-thienyl)-2-pyrazolin-5-one]	–	–	–	–	28%	42%	2%	28%
Cc1cc(C)c(C=C2C(=O)NN=C2c2csc3ccccc23)[nH]1 [Compound 39]	4%	13%	−7%	13%	–	–	–	–
Cc1cc(C)c(C=C2C(=O)NN=C2c2csc(-c3ccccc3)n2)[nH]1 [Compound 40]	16%	26%	−8%	22%	–	–	–	–
Cc1cc(C)c(C=C2C(=O)NN=C2c2cc(-c3ccc(Cl)cc3)oc2C)[nH]1 [Compound 41]	5%	13%	−15%	21%	–	–	–	–
Cc1oc(-c2ccc(Cl)cc2)cc1C1=NNC(=O)C1=Cc1c[nH]c2ccccc12 [Compound 42]	13%	28%	−10%	32%	–	–	–	–
O=C1NN=C(c2ccco2)C1=Cc1c[nH]c2ccc(OCc3ccccc3)cc12 [Compound 43]	−2%	25%	2%	26%	–	–	–	–
O=C1NN=C(c2ccco2)C1=Cc1c[nH]c2cccc(OCc3ccccc3)c12 [Compound 44]	2%	18%	−3%	10%	–	–	–	–
Cn1cc(C=C2C(=O)NN=C2c2ccco2)c2ccccc21 [Compound 45]	46%	72%	−22%	8%	–	–	–	–
Cc1ccc2c(C=C3C(=O)NN=C3c3ccco3)c[nH]c2c1 [Compound 46]	41%	71%	2%	25%	–	–	–	–
Cc1cccc2c(C=C3C(=O)NN=C3c3ccco3)c[nH]c12 [Compound 47]	40%	64%	−2%	32%	–	–	–	–
O=C1NN=C(c2ccco2)C1=Cc1c[nH]c2ccc(F)cc12 [Compound 48]	54%	58%	3%	43%	–	–	–	–
O=C1NN=C(c2ccco2)C1=Cc1c[nH]c2ccc(Cl)cc12 [Compound 49]	32%	50%	3%	39%	–	–	–	–
COC(=O)c1ccc2c(C=C3C(=O)NN=C3c3ccco3)c[nH]c2c1 [Compound 50]	31%	44%	−1%	20%	–	–	–	–
COc1ccc2[nH]cc(C=C3C(=O)NN=C3c3ccco3)c2c1 [Compound 51]	25%	55%	3%	9%	–	–	–	–
CN(C)c1ccc(C=C2C(=O)NN=C2c2ccco2)cc1 [Compound 52]	0%	19%	5%	10%	–	–	–	–
